From patent US20050192299A1, “Method of treating or preventing hepatitis B virus” (priority 1992, published 2005)
“And” between values parts separate entries of the source, which are not always exact repeats. Identical values can stand only once. Like-named read-outs stand apart in the source and are kept apart here.

Key:
HBV [1] = test system: HBV
HBV [2] = test: Northern blot analysis of HBV-specific RNA transcripts in 2.2.15 cells; assay type: cell-based, hepatitis B virus; details: 2.0 μM, 12 days
Method: Total cellular RNA was isolated according to Chomczyndki et al. (Chomczynsk, P., and Sacchi, N., “Single Step Method for RNA Isolation by Acid Guanidinium Thiocyanate-Phenol-Chloroform Extraction,” Analytical Biochemistry, 162: 156-159, 1987). The RNA (20 μg per lane) was electrophoresed through 1% agarose gel containing 1.1×formaldehyde and transferred to Hybond-N membrane. The immobilized RNA was hybridized with ^32P-labeled HBV DNA probe and the membrane was autoradiographed as described above.
Northern blot analysis was performed to analyze HBV RNA transcripts. Three major transcripts of approximately 3.5, 2.5, and 2.1 Kb were detected in the total cellular RNA extract.

mitochondria DNA = test: cells; assay type: cell-based; details: for IC50: Homo sapiens, CCRF-CEM, CEM cells
Method: The CEM cells (5×10^4) cells were collected and freeze-thawed three times. The cell lysate was incubated with RNase (10 μg/ml) at 37° C. for 30 minutes. The sample was treated with proteinase K (100 μg/ml) at 55° C. for 1 hour. A 0.8 volume of supersaturated Nal (2.5 gNaI in 1 ml hot water) was added to the sample and heated at 90° C. for 10 minutes. The DNA was immobilized on nitrocellulose paper by using a slot blot apparatus (Schleicher & Schuell, Keene, NH). The mtDNA on the nitrocellulose paper was detected with a mtDNA specific probe as described previously (Chen, C. H., Cheng, Y. C., “relayed Cytotoxicity and Selective Loss of Mitochondria DNA in Cells Treated with the Anti-Human Immunodeficiency Virus Compound 2′,3′-Dideoxycytidine,” J. Biol. Chem. 264: 11934-11937, 1989).
(§1) Mitochondria DNA content was measured by slot blot hybridization analysis. […] Thus, D4C would be expected to have a mitochondria effect before the anti-HBV effect was achieved as the same phenomenon observed in treatment with ddC.

HBV [3] = details: 12 days; for chromosomally integrated HBV DNA (amount and restriction enzyme pattern): 2.2.15 cells
Method: Drug-treated cells were lysed with a buffer containing 10 mM Tris pH 7.5, 5 mM EDTA, 150 mM NaCl and 1% SDS. The cell lysate was digested with 100 μg/ml proteinase K at 55° C. for at least 2 hours and deproteinized by extraction with phenol. Nucleic acids were precipitated with 2 volumes of ethanol. The pellet of nucleic acid was redissolved in 10 mM Tris pH 8.0, 1 mM EDTA followed by 100 μg per ml RNase treatment at 37° C. for 1 hour. Concentrated ammonium acetate was added to the aqueous phase to yield a final 0.4 M ammonium acetate solution. The nucleic acids were precipitated with ethanol.
The chromosomally integrated HBV DNA genome and the episomal DNA can be separated in the gel and can be differentially quantified.

[4] = test system: CEM (T lymphoblastoid cells) cells; test: Cytotoxicity in CEM cells (cell number at day 4); assay type: cell-based; details: 4 days
Method: CEM (T lymphoblastoid cells) cells were inoculated in 5 ml RPMI 1640 supplemented with 5% fetal bovine serum at a concentration of 2×10^3 cells per ml. The cells were incubated with different concentrations of compounds for 4 days. At day 4, the cell number was determined by a coulter counter or a hemocytometer.
as §1

human cytidine deaminase = human cytidine deaminase (Homo sapiens, UniProt P32320); test: Deamination by deoxycytidine deaminase (HPLC analysis); assay type: biochemical; details: 37° C., 16 hours
Method: After each time point, 100 μl of acetonitrile were added to the reaction mixture and agitated. The precipitated proteins were removed by centrifugation, and the supernatent was lyophilized to dryness. The samples were reconstituted with 200 μl of HPLC mobile phase buffer and analyzed on an Alltech RP-18 column. […] The mobile phase was 10% acetonitrile/water unless specified otherwise, and the flow rate was 0.8 ml/minutes.

CEM cells = test: CEM growth with dialyzed FBS (cell number on days 2, 4 and 6); assay type: cell-based; details: Homo sapiens, CCRF-CEM, RPMI 1640 + 5% dialyzed FBS, cell number versus days in culture, read-out: ID50 (CEM cell growth, toxicity)
Method: Six wells were seeded as controls. These wells were untreated. […] The cells were pipetted to break clumps, and then 1 ml was removed from each well and diluted into 9 ml saline. The saline+cells were pipetted well to break clumps and counted via a coutler counter. To determine ID50, cell number was plotted versus days in culture.

[5] = read-out: MTID30 (concentration which caused a 50% reduction in mitochondria DNA content)

Sequence of human cytidine deaminase (P32320 whole entry): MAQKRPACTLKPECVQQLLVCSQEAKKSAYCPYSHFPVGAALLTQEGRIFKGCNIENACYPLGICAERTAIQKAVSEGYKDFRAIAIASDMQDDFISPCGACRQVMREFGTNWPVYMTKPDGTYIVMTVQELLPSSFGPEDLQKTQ

| Structure (SMILES) | IC50 (HBV [1]) | selectivity ratio (HBV [1]) | IC50 (mitochondria DNA; [5]) [nM] | deamination by deoxycytidine deaminase (human cytidine deaminase) | also measured |
| --- | --- | --- | --- | --- | --- |
| Nc1nc(=O)n([C@H]2CS[C@@H](CO)O2)cc1F (racemic) [5-fluoro-3′-thia-2′,3′-dideoxycytidine, (±)5-fluoro-3′-thia-2′,3′-dideoxycytidine] | 100 nM | > 2000 | > 200000 |  | HBV specific RNA transcripts (3.5, 2.5, 2.1 Kb) (HBV [2]): not affected at all; effect on mitochondria DNA synthesis (mitochondria DNA): no effect on mitochondria DNA synthesis was observed; chromosomally integrated HBV DNA (amount and restriction enzyme pattern) (HBV [3]): unaltered; chromosomally integrated HBV DNA (amount and restriction enzyme pattern) (HBV [3]; listed as 5-fluoro-3′-thia-2′,3-dideoxycytidine): not found to affect the integrated HBV DNAs; episomal HBV DNA in 2.2.15 cells (HBV [3]; different concentrations): decreased in a dose dependent manner |
| Nc1ccn(C2COC(CO)O2)c(=O)n1 (single isomer, unassigned; (-)) [(−) OddC, (−)-L-B-dioxolane-cytosine] | < 1 nM |  |  |  |  |
| Nc1ccn([C@H]2C[C@H](F)[C@@H](CO)O2)c(=O)n1 [3′-FddC, 3′-fluoro-2′,3′-dideoxycytidine] | 1600 nM | 28.1 | 110 |  | inhibition (HBV [1]; 2 µM): ~50%; ED50 (concentration causing 50% reduction in cell number) [4]: 45000 nM |
| Nc1ccn([C@H]2CS[C@@H](CO)O2)c(=O)n1 [(+)3′-thia-2′,3′-dideoxycytidine] |  |  |  | ~100% | inhibition (HBV [1]): ~50%; IC50 (CEM cells): 1260 nM |
| Nc1ccn([C@@H]2CS[C@H](CO)O2)c(=O)n1 [(−)3′-thia-2′,3′-dideoxycytidine] |  |  |  | no sign of deamination at all |  |
| Nc1ccn([C@H]2C=C[C@@H](CO)O2)c(=O)n1 [D4C, 2′,3′-didehydro-2′,3′-dideoxycytidine] | 2400 nM | 9.2 | 2000 |  | IC50 (mitochondria DNA; read-out: MtID50): 2000 nM; ED50 (concentration causing 50% reduction in cell number) [4]: 22000 nM |
| Nc1ccn([C@H]2CC[C@@H](CO)O2)c(=O)n1 [ddC, 2′,3′ dideoxycytidine] | 3800 nM and 3600 nM | 2.6 | 22 |  | IC50 (mitochondria DNA; read-out: MtID50): 22 nM |
| Nc1ccn([C@@H]2CS[C@@H](CO)O2)c(=O)n1 [α-3′-Thia-2′,3′-dideoxycytidine] |  |  |  | no deamination occurred |  |
